Laboratory results from PubChem BioAssay AID290 (DTP/NCI, 2004).
Where “and” joins values, the source holds several entries; their conditions need not be identical. Equal values may be shown once. Results filed as inconclusive are left out.

Tested on: mice, P1798 lymphosarcoma sc, survival or tumor weight T/C
Assay: NCI In Vivo Anticancer Drug Screen. Data for tumor model P1798 Lymphosarcoma (subcutaneous) in unknown mice
Conditions: endpoint: mean tumor weight, higher = larger tumour
Description: The antitumor activity of compounds was measured in mice bearing transplantable tumors. Survival or tumor size were measured and the results are expressed as the measurement made in the treated group (T) divided by the measurement made in the vehicle treated control group (C). The tumor model used in this assay is P1798 Lymphosarcoma (subcutaneous) in unknown mice

O=C(O)c1ccc(-c2ccccc2)cc1
T/C (dose: 62.5 mg/kg/injection, schedule: Q01DX010 (ip), vehicle: carboxymethylcellulose (CMC)): 101 % of control
T/C (dose: 125.0 mg/kg/injection, schedule: Q01DX010 (ip), vehicle: carboxymethylcellulose (CMC)): 92 % of control
T/C (dose: 250.0 mg/kg/injection, schedule: Q01DX010 (ip), vehicle: carboxymethylcellulose (CMC)): 95 % of control

CC[C@]1(O)C[C@H]2CN(CCc3c([nH]c4ccccc34)[C@@](C(=O)OC)(c3cc4c(cc3OC)N(C=O)[C@H]3[C@@](O)(C(=O)OC)[C@H](OC(C)=O)[C@]5(CC)C=CCN6CC[C@]43[C@@H]65)C2)C1
T/C (dose: 0.01 mg/kg/injection, schedule: Q01DX010 (ip), vehicle: water): 105 % of control
T/C (dose: 0.03 mg/kg/injection, schedule: Q01DX010 (ip), vehicle: water): 105 % of control
T/C (dose: 0.1 mg/kg/injection, schedule: Q01DX001 (ip), vehicle: saline): 120 % of control
T/C (dose: 0.3 mg/kg/injection, schedule: Q01DX001 (ip), vehicle: saline): 45 % of control
T/C (dose: 0.5 mg/kg/injection, schedule: Q01DX001 (ip), vehicle: saline): 40 % of control
T/C (dose: 0.68 mg/kg/injection, schedule: Q01DX001 (ip), vehicle: saline): 10 % of control
T/C (dose: 0.7 mg/kg/injection, schedule: Q01DX001 (ip), vehicle: saline): 36 % of control
T/C (dose: 1.35 mg/kg/injection, schedule: Q01DX001 (ip), vehicle: saline): 3 % of control
T/C (dose: 125.0 micrograms/kg/injection, schedule: Q01DX010 (ip), vehicle: water): 16 % of control

C[C@@H]1C[C@@H]([C@H](O)CC2CC(=O)NC(=O)C2)C(=O)[C@@H](C)C1
T/C (dose: 1.6 mg/kg/injection, schedule: Q01DX010 (ip), vehicle: water): 86 % of control
T/C (dose: 3.1 mg/kg/injection, schedule: Q01DX010 (ip), vehicle: water): 96 % of control
T/C (dose: 6.3 mg/kg/injection, schedule: Q01DX010 (ip), vehicle: water): 96 % of control
T/C (dose: 12.5 mg/kg/injection, schedule: Q01DX010 (ip), vehicle: water): 98 % of control

CC/C(=C(/CC)c1ccc(O)cc1)c1ccc(O)cc1
T/C (dose: 62.5 mg/kg/injection, schedule: Q01DX010 (sc), vehicle: steriod suspending solution): 64 % of control
T/C (dose: 125.0 mg/kg/injection, schedule: Q01DX010 (sc), vehicle: steriod suspending solution): 83 % of control
T/C (dose: 500.0 mg/kg/injection, schedule: Q01DX010 (sc), vehicle: steriod suspending solution): 39 % of control

N=[N+]=CC(=O)OCC(N)C(=O)O (stereo not drawn)
T/C (dose: 1.25 mg/kg/injection, schedule: Q01DX010 (ip), vehicle: saline): 98 % of control
T/C (dose: 2.5 mg/kg/injection, schedule: Q01DX010 (ip), vehicle: saline): 56 % of control
T/C (dose: 5.0 mg/kg/injection, schedule: Q01DX010 (ip), vehicle: saline): 17 % of control and 24 % of control

CC(C)=C(Br)CC[C@@H](C)[C@H]1CC[C@@]2(C)C3=C(CC[C@]12C)[C@@]1(C)CC[C@H](O)C(C)(C)[C@@H]1CC3
T/C (dose: 100.0 mg/kg/injection, schedule: Q01DX011 (sc), vehicle: steriod suspending solution): 151 % of control
T/C (dose: 200.0 mg/kg/injection, schedule: Q01DX011 (sc), vehicle: steriod suspending solution): 186 % of control

COS(C)(=O)=O
T/C (dose: 12.5 mg/kg/injection, schedule: Q01DX010 (ip), vehicle: saline): 98 % of control
T/C (dose: 25.0 mg/kg/injection, schedule: Q01DX010 (ip), vehicle: saline): 80 % of control
T/C (dose: 50.0 mg/kg/injection, schedule: Q01DX010 (ip), vehicle: saline): 81 % of control
T/C (dose: 100.0 mg/kg/injection, schedule: Q01DX010 (ip), vehicle: saline): 57 % of control

C[C@]12CCC(=O)C=C1CC[C@@H]1[C@@H]2C(=O)C[C@@]2(C)[C@H]1CC[C@]2(O)C(=O)CO
T/C (dose: 100.0 mg/kg/injection, schedule: Q01DX010 (sc), vehicle: steriod suspending solution): 7 % of control
T/C (dose: 200.0 mg/kg/injection, schedule: Q01DX010 (sc), vehicle: steriod suspending solution): 1 % of control

CN(C)/N=N/c1nc[nH]c1C(N)=O
T/C (dose: 75.0 mg/kg/injection, schedule: Q01DX015 (ip), vehicle: carboxymethylcellulose (CMC)): 73 % of control
T/C (dose: 100.0 mg/kg/injection, schedule: Q01DX015 (ip), vehicle: carboxymethylcellulose (CMC)): 69 % of control
T/C (dose: 125.0 mg/kg/injection, schedule: Q01DX015 (ip), vehicle: carboxymethylcellulose (CMC)): 57 % of control
T/C (dose: 150.0 mg/kg/injection, schedule: Q01DX015 (ip), vehicle: carboxymethylcellulose (CMC)): 52 % of control

C[C@H]1C(=O)O[C@@H]2CCN3CC=C(COC(=O)[C@](C)(O)[C@@]1(C)O)[C@H]23
T/C (dose: 3.75 mg/kg/injection, schedule: Q01DX010 (ip), vehicle: carboxymethylcellulose (CMC)): 73 % of control
T/C (dose: 7.5 mg/kg/injection, schedule: Q01DX010 (ip), vehicle: carboxymethylcellulose (CMC)): 68 % of control
T/C (dose: 15.0 mg/kg/injection, schedule: Q01DX010 (ip), vehicle: carboxymethylcellulose (CMC)): 44 % of control
T/C (dose: 30.0 mg/kg/injection, schedule: Q01DX010 (ip), vehicle: carboxymethylcellulose (CMC)): 23 % of control
